Data published in patent publication US20180064726A1, “Deuterium-Substituted Oxazepin Compounds” (Auspex Pharmaceuticals, Inc., priority 2016, published 2018).

Tests used:
[1] = system: patients with QT-3 (LQT3) syndrome; settings: cited from earlier work
[2] = In vitro human liver microsomal stability assay; type: in vitro ADME; settings: human liver microsomes 0.5 mg per mL protein, NADPH-generating system, 1 μM test compound, 37±1° C., 0-60 min; for half-life at 1 μM: degradation half-life; for CLint scaled at 1 μM: read-out: Clearance %
Protocol: In Vitro Liver Microsomal Stability Assay
Human liver microsomal stability assays were conducted at 0.5 mg per mL liver microsome protein with an NADPH-generating system consisting of NADP (1 mM, pH 7.4), […] (5 mM, pH 7.4), and glucose-6-phosphate dehydrogenase (1 unit/mL).
Test compounds were prepared as solutions in DMSO and added to the assay mixture (1 μM, final concentration in incubation) to be incubated at 37±1° C. Reactions were initiated with the addition of cofactor and were stopped at 0, 15, 30, 45, and 60 min after cofactor addition with stop reagent (0.2 mL acetonitrile). Samples were centrifuged (920×g for 10 min at 10° C.) in 96-well plates. Supernatant fractions were analyzed by LC-MS/MS to determine the percent remaining and estimate the degradation half-life of the test compounds.

For “4-(pyrimidin-2-ylmethyl)-7-[4-(trifluoromethoxy)phenyl]-2,3,4,5-tetrahydro-1,4-benzoxazepin-5-one [Example 1]”, the “effect on QTc interval” value [1] is listed as “shortening of the QTc interval”.
With `O=C1c2cc(-c3ccc(OC(F)(F)F)cc3)ccc2OCCN1Cc1ncccn1` [Example 1, 4-(pyrimidin-2-ylmethyl)-7-[4-(trifluoromethoxy)phenyl]-2,3,4,5-tetrahydro-1,4-benzoxazepin-5-one, reference compound] the half-life at 1 μM [2] was 2.36 h and the CLint scaled at 1 μM [2] was 12.3 mL/min/kg.
With `[2H]C([2H])(c1ncccn1)N1CCOc2ccc(-c3ccc(OC(F)(F)F)cc3)cc2C1=O` [Example 2, 4-(pyrimidin-2-ylmethyl-d2)-7-(4-(trifluoromethoxy)phenyl)-3,4-dihydrobenzo[f][1,4]oxazepin-5(2H)-one] the half-life at 1 μM [2] was 9.52 h and the CLint scaled at 1 μM [2] was 3.04 mL/min/kg.
In the case of `[2H]C1([2H])CN(Cc2ncccn2)C(=O)c2cc(-c3ccc(OC(F)(F)F)cc3)ccc2O1` [Example 3, 4-(pyrimidin-2-ylmethyl)-7-[4-(trifluoromethoxy)phenyl]-2,3,4,5-tetrahydro(2,2-d2)-1,4-benzoxazepin-5-one], the half-life at 1 μM [2] was 4.62 h and the CLint scaled at 1 μM [2] was 6.27 mL/min/kg.
With `[2H]C1([2H])COc2ccc(-c3ccc(OC(F)(F)F)cc3)cc2C(=O)N1Cc1ncccn1` [Example 4, 4-(pyrimidin-2-ylmethyl)-7-(4-(trifluoromethoxy)phenyl)-3,4-dihydrobenzo[f][1,4]oxazepin-5(2H)-one-3,3-d2] the half-life at 1 μM [2] was 2.01 h and the CLint scaled at 1 μM [2] was 14.4 mL/min/kg.
Work on `[2H]C1([2H])Oc2ccc(-c3ccc(OC(F)(F)F)cc3)cc2C(=O)N(Cc2ncccn2)C1([2H])[2H]` [Example 5, 4-(pyrimidin-2-ylmethyl)-7-[4-(trifluoromethoxy)phenyl]-2,3,4,5-tetrahydro(2,2,3,3-d4)-1,4-benzoxazepin-5-one] yielded a half-life at 1 μM [2] of 1.35 h and a CLint scaled at 1 μM [2] of 21.5 mL/min/kg.
Compound `[2H]C([2H])(c1ncccn1)N1C(=O)c2cc(-c3ccc(OC(F)(F)F)cc3)ccc2OC([2H])([2H])C1([2H])[2H]` [Example 6, 4-[pyrimidin-2-yl(d2)methyl]-7-[4-(trifluoromethoxy)phenyl]-2,3,4,5-tetrahydro(2,2,3,3-d4)-1,4-benzoxazepin-5-one] has a half-life at 1 μM [2] of 1.51 h and a CLint scaled at 1 μM [2] of 19.2 mL/min/kg.
`[2H]c1c(-c2ccc(OC(F)(F)F)cc2)cc2c(c1[2H])OCCN(Cc1ncccn1)C2=O` [Example 7, 4-(pyrimidin-2-ylmethyl)-7-[4-(trifluoromethoxy)phenyl]-2,3,4,5-tetrahydro(8,9-d2)-1,4-benzoxazepin-5-one] gave a half-life at 1 μM [2] of 2.32 h and a CLint scaled at 1 μM [2] of 12.5 mL/min/kg.
